Literature values, collected in US11160745B2, “Methods and compositions for topical delivery for skin care” (priority 2014, dated 2021).
Like-named read-outs stand apart in the source and are kept apart here.

Tests used:
[1] = test system: wrinkles around the eyes; details: for Reduction of the depth of wrinkles: independent study; for Decrease in severity of wrinkles around the eyes: ONV emulsion containing 10% Argireline solution, twice a day
[2] = target: T1, ternary SNARE complex (Homo sapiens, UniProt Q16623); details: immunoblot with anti-syntaxin mAb
T1 construct: Chromaffin cells were prepared and further separated from erythrocytes and other impurities by centrifugation gradient; endogenous in cells; complex immunoprecipitated

[3] = test system: chromaffin cells; details: tritiated noradrenaline/adrenaline, liquid scintillation counting

T1 sequence (Q16623 whole entry, one chain of several): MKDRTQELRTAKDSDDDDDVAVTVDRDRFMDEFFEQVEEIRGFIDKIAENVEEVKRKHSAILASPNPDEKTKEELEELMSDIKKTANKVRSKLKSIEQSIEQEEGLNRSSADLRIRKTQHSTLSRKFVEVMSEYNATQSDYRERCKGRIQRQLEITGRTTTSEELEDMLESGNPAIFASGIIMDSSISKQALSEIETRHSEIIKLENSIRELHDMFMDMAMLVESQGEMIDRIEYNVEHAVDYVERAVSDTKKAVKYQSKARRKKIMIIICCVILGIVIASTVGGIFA

Ac-EEMQRR-NH2 [Argireline, (6S,9S,12S,15S,18S,21 S)-21-Acetamido-1-amino-12-(3-amino-3-oxopropyl)-6-carbamoyl-18-(2-carboxyethyl)-9-(3-guanidinopropyl)-1-imino-15-(2-(methylthio)ethyl)-8,11,14,17,20-pentaoxo-2,7,10,13,16,19-hexaazatetracosan-24-oic acid]
Reduction of the depth of wrinkles ([1]; after 15 days of treatment): up to 17% | Decrease in severity of wrinkles around the eyes ([1]; after 15 days): up to 17% | Decrease in severity of wrinkles around the eyes ([1]; after 30 days): up to 27% | Reduction of the depth of wrinkles ([1]; following 30 days of treatment): up to 27% | SNARE complex formation [2]: modulates SNARE complex formation at concentrations in the mM range | Release of catecholamines (adrenaline and noradrenaline) [3]: significant modulation of both neurotransmitters at nM concentrations
